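In this assay, cells in 96-well plates receive the compound at five concentrations for 48 hours. Endpoints are linearly interpolated between the surrounding concentrations. The concentration for 50% growth inhibition is given as GI50. Definition used: TGI = concentration required for complete inhibition of growth.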
How the values were obtained:
Experiment in all cases: NCI-60 cell line screen, 48 h
A549 NSCLC = system: A549 NSCLC
EKVX NSCLC = system: EKVX NSCLC
M14 melanoma = system: M14 melanoma
NCI-H460 lung = system: NCI-H460 lung
OVCAR-3 ovarian = system: OVCAR-3 ovarian
RXF 393 renal = system: RXF 393 renal
U251 CNS = system: U251 CNS
UACC-62 melanoma = system: UACC-62 melanoma
NCI-H226 lung = system: NCI-H226 lung
SF-539 CNS = system: SF-539 CNS

c1ccc(CN(Cn2cccn2)Cn2cccn2)nc1
TGI (A549 NSCLC): > 100 µM
TGI (EKVX NSCLC): > 100 µM
TGI (M14 melanoma): > 100 µM
TGI (NCI-H460 lung): > 100 µM
TGI (OVCAR-3 ovarian): > 100 µM
TGI (RXF 393 renal): > 100 µM
TGI (U251 CNS): > 100 µM
TGI (UACC-62 melanoma): > 100 µM

Nc1c(-c2ccc(Cl)cc2Cl)[n+]([O-])c2ccccc2[n+]1[O-]
TGI (A549 NSCLC): > 100 µM
TGI (EKVX NSCLC): > 100 µM
TGI (M14 melanoma): > 100 µM
TGI (NCI-H226 lung): > 100 µM
TGI (NCI-H460 lung): > 100 µM
TGI (OVCAR-3 ovarian): > 100 µM
TGI (SF-539 CNS): > 100 µM
TGI (U251 CNS): > 100 µM
TGI (UACC-62 melanoma): > 100 µM

Cc1nc(NC(=O)CCCN2C(=O)c3cccc4cccc(c34)C2=O)sc1C(=O)Nc1cc(C(=O)NCCCN(C)C)n(C)c1
GI50 (A549 NSCLC): > 100 µM
TGI (A549 NSCLC): > 100 µM
GI50 (EKVX NSCLC): > 100 µM
TGI (EKVX NSCLC): > 100 µM
GI50 (M14 melanoma): > 100 µM
TGI (M14 melanoma): > 100 µM
GI50 (NCI-H226 lung): > 100 µM
TGI (NCI-H226 lung): > 100 µM
GI50 (NCI-H460 lung): > 100 µM
TGI (NCI-H460 lung): > 100 µM
GI50 (OVCAR-3 ovarian): > 100 µM
TGI (OVCAR-3 ovarian): > 100 µM
GI50 (SF-539 CNS): > 100 µM
TGI (SF-539 CNS): > 100 µM
GI50 (U251 CNS): > 100 µM
TGI (U251 CNS): > 100 µM
GI50 (UACC-62 melanoma): > 100 µM
TGI (UACC-62 melanoma): > 100 µM

COc1ccc([N+](=O)[O-])c(S(=O)(=O)c2ccc(Cl)cc2)n1
GI50 (A549 NSCLC): 18.5 µM
TGI (A549 NSCLC): 41.9 µM
GI50 (M14 melanoma): 3.05 µM
TGI (M14 melanoma): 10.1 µM
GI50 (NCI-H226 lung): 10.2 µM
TGI (NCI-H226 lung): 36 µM
GI50 (NCI-H460 lung): 14.6 µM
TGI (NCI-H460 lung): 30.1 µM
GI50 (OVCAR-3 ovarian): 2.34 µM
TGI (OVCAR-3 ovarian): 5.31 µM
GI50 (RXF 393 renal): 4.45 µM
TGI (RXF 393 renal): 16.2 µM
GI50 (SF-539 CNS): 3.39 µM
TGI (SF-539 CNS): 12.3 µM
GI50 (U251 CNS): 8.69 µM
TGI (U251 CNS): 21.6 µM
GI50 (UACC-62 melanoma): 3.56 µM
TGI (UACC-62 melanoma): 13.3 µM

COc1ccc(-c2nc(-c3nc4ccc(OC)cc4[nH]3)cc3c2[nH]c2ccccc23)cc1
GI50 (A549 NSCLC): 1.92 µM
TGI (A549 NSCLC): > 100 µM
GI50 (M14 melanoma): 3.34 µM
TGI (M14 melanoma): > 100 µM
GI50 (NCI-H226 lung): 4.37 µM
TGI (NCI-H226 lung): > 100 µM
GI50 (NCI-H460 lung): 2.05 µM
TGI (NCI-H460 lung): > 100 µM
GI50 (OVCAR-3 ovarian): 3.51 µM
TGI (OVCAR-3 ovarian): > 100 µM
GI50 (RXF 393 renal): 2.77 µM
TGI (RXF 393 renal): > 100 µM
GI50 (SF-539 CNS): 9.29 µM
TGI (SF-539 CNS): > 100 µM
GI50 (U251 CNS): 2.89 µM
TGI (U251 CNS): > 100 µM
GI50 (UACC-62 melanoma): 2.75 µM
TGI (UACC-62 melanoma): > 100 µM

Cc1ccc(C)c(-c2csc(Nc3ccc(C)c(C)c3)n2)c1
GI50 (A549 NSCLC): > 100 µM
TGI (A549 NSCLC): > 100 µM
GI50 (NCI-H226 lung): > 100 µM
TGI (NCI-H226 lung): > 100 µM
GI50 (OVCAR-3 ovarian): 66.3 µM
TGI (OVCAR-3 ovarian): > 100 µM
GI50 (RXF 393 renal): 24.2 µM
TGI (RXF 393 renal): > 100 µM
GI50 (SF-539 CNS): 44.6 µM
TGI (SF-539 CNS): > 100 µM
GI50 (U251 CNS): 52.9 µM
TGI (U251 CNS): > 100 µM
GI50 (UACC-62 melanoma): > 100 µM
TGI (UACC-62 melanoma): > 100 µM

Cc1cc(Cl)ccc1N=C1NC(=O)C(CC(=O)Nc2ccc(Cl)cc2Cl)S1 (stereo not drawn)
TGI (A549 NSCLC): > 100 µM
TGI (EKVX NSCLC): > 100 µM
TGI (M14 melanoma): > 100 µM
TGI (NCI-H460 lung): > 100 µM
TGI (OVCAR-3 ovarian): > 100 µM
TGI (SF-539 CNS): > 100 µM
TGI (U251 CNS): > 100 µM
TGI (UACC-62 melanoma): > 100 µM

O=[N+]([O-])c1nccn1COCCF
TGI (A549 NSCLC): > 100 µM
TGI (EKVX NSCLC): > 100 µM
TGI (M14 melanoma): > 100 µM
TGI (NCI-H226 lung): > 100 µM
TGI (NCI-H460 lung): > 100 µM
TGI (OVCAR-3 ovarian): > 100 µM
TGI (SF-539 CNS): > 100 µM
TGI (U251 CNS): > 100 µM
TGI (UACC-62 melanoma): > 100 µM

OCC12C3C4C1C1C2C3C41CO (stereo not drawn)
TGI (A549 NSCLC): > 100 µM
TGI (EKVX NSCLC): > 100 µM
TGI (M14 melanoma): > 100 µM
TGI (NCI-H226 lung): > 100 µM
TGI (NCI-H460 lung): > 100 µM
TGI (OVCAR-3 ovarian): > 100 µM
TGI (SF-539 CNS): > 100 µM
TGI (U251 CNS): > 100 µM
TGI (UACC-62 melanoma): > 100 µM

CC1=C(C(=O)Nc2ccc(Cl)c(Cl)c2)C(c2ccco2)C(C(=O)Nc2ccc(Cl)c(Cl)c2)=C(C)N1
TGI (A549 NSCLC): 28.1 µM
TGI (EKVX NSCLC): 29.5 µM
TGI (M14 melanoma): 18.4 µM
TGI (NCI-H226 lung): 25.6 µM
TGI (NCI-H460 lung): 31.6 µM
TGI (OVCAR-3 ovarian): 20.2 µM
TGI (SF-539 CNS): 27.7 µM
TGI (U251 CNS): 23.9 µM
TGI (UACC-62 melanoma): 26 µM

CC(=O)N=c1ccc2nc3c(cc(N)c4ccccc43)oc-2c1
GI50 (A549 NSCLC): 1.08 µM
TGI (A549 NSCLC): 3.42 µM
GI50 (EKVX NSCLC): 1.52 µM
TGI (EKVX NSCLC): 4.54 µM
GI50 (M14 melanoma): 1.58 µM
TGI (M14 melanoma): 3.86 µM
TGI (NCI-H226 lung): > 39.1 µM
GI50 (NCI-H460 lung): 1.85 µM
TGI (NCI-H460 lung): 4.24 µM
GI50 (OVCAR-3 ovarian): 0.207 µM
TGI (OVCAR-3 ovarian): 0.684 µM
GI50 (SF-539 CNS): 1.63 µM
TGI (SF-539 CNS): 3.05 µM
GI50 (U251 CNS): 1.43 µM
TGI (U251 CNS): 2.86 µM
GI50 (UACC-62 melanoma): 1.41 µM
TGI (UACC-62 melanoma): 2.72 µM

O=C1C(=O)C(Br)(Br)C(Br)=C1Br
TGI (A549 NSCLC): > 100 µM
TGI (EKVX NSCLC): 54.8 µM
TGI (M14 melanoma): 32.4 µM
TGI (NCI-H460 lung): > 100 µM
TGI (OVCAR-3 ovarian): 29.1 µM
TGI (SF-539 CNS): 33.4 µM
TGI (U251 CNS): 79.8 µM
TGI (UACC-62 melanoma): 33.6 µM

C1=Cc2nc1c(-c1ccncc1)c1ccc([n-]1)c(-c1ccncc1)c1nc(c(-c3ccncc3)c3ccc([n-]3)c2-c2ccncc2)C=C1.[Zn+2]
TGI (A549 NSCLC): > 100 µM
TGI (EKVX NSCLC): > 100 µM
TGI (M14 melanoma): > 100 µM
TGI (NCI-H226 lung): > 100 µM
TGI (NCI-H460 lung): > 100 µM
TGI (OVCAR-3 ovarian): > 100 µM
TGI (SF-539 CNS): > 100 µM
TGI (U251 CNS): > 100 µM
TGI (UACC-62 melanoma): > 100 µM

CN(C)CC1(C)CC/C(=C\c2ccccc2)C1=O (stereo not drawn)
TGI (A549 NSCLC): > 100 µM
TGI (M14 melanoma): > 100 µM
TGI (NCI-H226 lung): > 100 µM
TGI (NCI-H460 lung): > 100 µM
TGI (OVCAR-3 ovarian): > 100 µM
TGI (RXF 393 renal): > 100 µM
TGI (SF-539 CNS): > 100 µM
TGI (U251 CNS): > 100 µM
TGI (UACC-62 melanoma): > 100 µM

Source: PubChem BioAssay (NCI)
